Results as given in the NIST ThermoML archive (doi:10.1021/je800325d).

Tests used:
[1] = 101.33 kPa, Liquid; for viscosity: Capillary tube (Ostwald / Ubbelohde) method
[2] = refractive index (Na D-line) (dimensionless); details: 101.33 kPa, Liquid, Standard Abbe refractometry
[3] = xn = mol fraction of the nth substance listed; details: 101 kPa, Liquid
[4] = refractive index (Na D-line) (dimensionless); xn = mol fraction of the nth substance listed; details: 101 kPa, Liquid, Standard Abbe refractometry

Cc1ccccc1C [1,2-dimethylbenzene]
Details	refractive index, [2]	viscosity, [1] [mPa·s]
303.15 K	1.5001	0.695
313.15 K	1.4981	0.621

[1], Pycnometric method
Details	mass density [kg/m3]
303.15 K	871.5
313.15 K	863.3

Cc1cccc(C)c1 [1,3-dimethylbenzene]
Details	refractive index, [2]	viscosity, [1] [mPa·s]
303.15 K	1.492	0.557
313.15 K	1.4901	0.508

[1], Pycnometric method
Details	mass density [kg/m3]
303.15 K	855.3
313.15 K	847.1

Cc1ccc(C)cc1 [1,4-dimethylbenzene]
Details	refractive index, [2]	viscosity, [1] [mPa·s]
303.15 K	1.4911	0.566
313.15 K	1.4902	0.517

[1], Pycnometric method
Details	mass density [kg/m3]
303.15 K	852.1
313.15 K	843.5

CC(=O)OCCC(C)C [3-methylbutyl ethanoate]
Details	refractive index, [2]	viscosity, [1] [mPa·s]
303.15 K	1.3959	0.741
313.15 K	1.3945	0.649

[1], Pycnometric method
Details	mass density [kg/m3]
303.15 K	862.3
313.15 K	852.8

CCc1ccccc1 [ethylbenzene]
Details	mass density, [1] [kg/m3]	refractive index, [2]	viscosity, [1] [mPa·s]
303.15 K	857.6	1.491	0.597
313.15 K	849.2	1.4891	0.538

COC(=O)c1ccccc1 [methyl benzoate]
Details	refractive index, [2]	viscosity, [1] [mPa·s]
303.15 K	1.5127	1.679
313.15 K	1.5083	1.414

[1], Pycnometric method
Details	mass density [kg/m3]
303.15 K	1078.8
313.15 K	1069.2

COC(=O)c1ccccc1 [methyl benzoate] + Cc1ccccc1C
Details	mass density, [3] [kg/m3]	refractive index, [4]	viscosity, [3] [mPa·s]
303.15 K, x1 = 0.0879	890.4	1.5006	0.757
303.15 K, x1 = 0.1997	911.4	1.5007	0.842
303.15 K, x1 = 0.3008	931.3	1.501	0.908
303.15 K, x1 = 0.3925	951.2	1.5012	0.975
303.15 K, x1 = 0.4928	970.9	1.5016	1.06
303.15 K, x1 = 0.5939	991.7	1.5022	1.16
303.15 K, x1 = 0.6852	1009.5	1.5055	1.252
303.15 K, x1 = 0.798	1031.6	1.5083	1.395
303.15 K, x1 = 0.8981	1052.1	1.511	1.506
303.15 K, x1 = 0.9485	1056.3	1.5115	1.593
313.15 K, x1 = 0.0879	882.3	1.497	0.664
313.15 K, x1 = 0.1997	902.1	1.4971	0.72
313.15 K, x1 = 0.3008	922.8	1.498	0.785
313.15 K, x1 = 0.3925	942.6	1.4996	0.836
313.15 K, x1 = 0.4928	962.4	1.5002	0.91
313.15 K, x1 = 0.5939	983	1.5017	0.992
313.15 K, x1 = 0.6852	1000.7	1.5038	1.07
313.15 K, x1 = 0.798	1022.5	1.5062	1.171
313.15 K, x1 = 0.8981	1042.8	1.5085	1.29
313.15 K, x1 = 0.9485	1046.7	1.5101	1.351
